Results as given in PMC6119630 (Bioorganic & medicinal chemistry letters, 2018).
Blank lines part the entries; values can stand above or below the compound they belong to.

Legend:
[1] = biological target: T1, hPPARα (Homo sapiens, UniProt Q07869); assay: cell-based
T1 sequence (Q07869 1-468): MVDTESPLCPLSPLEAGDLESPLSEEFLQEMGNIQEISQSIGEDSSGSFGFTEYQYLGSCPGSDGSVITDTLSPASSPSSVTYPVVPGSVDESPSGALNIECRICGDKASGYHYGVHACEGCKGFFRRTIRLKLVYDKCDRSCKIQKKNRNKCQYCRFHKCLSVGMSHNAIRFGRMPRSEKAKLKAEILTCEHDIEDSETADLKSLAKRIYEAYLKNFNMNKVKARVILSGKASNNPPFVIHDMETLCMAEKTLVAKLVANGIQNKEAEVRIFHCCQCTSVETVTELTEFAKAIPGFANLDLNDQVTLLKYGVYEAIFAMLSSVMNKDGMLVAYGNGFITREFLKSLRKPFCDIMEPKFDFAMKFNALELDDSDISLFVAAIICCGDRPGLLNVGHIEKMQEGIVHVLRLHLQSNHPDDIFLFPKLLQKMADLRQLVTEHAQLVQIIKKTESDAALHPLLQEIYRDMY

[2] = test system: human retinal capillary endothelial cells (HRCEC); assay: in vitro wound healing assay; assay type: cell-based; details: 10 h and 24 h incubation
[3] = test system: PPARα; assay: Western blot analysis of PPARα expression in 661W cells; assay type: cell-based, mouse; details: 24 h treatment
[4] = test system: PPARα target genes (Acadm, Cpt1a, Fabp3, Slc25a20); assay: RT-PCR of PPARα target genes in 661W cells; assay type: cell-based, mouse; details: 24 h treatment, n=6
[5] = biological target: T1, hPPARα; assay: PPARα luciferase cell reporter assay; details: for PPAR isoform selectivity profile: hPPARδ, hPPARγ luciferase cell-lines
[6] = test system: PPARα; details: read-out: EC50 in biochemical PPARα assays; cited from earlier work
[7] = test system: retinas of mice and diabetic rats; details: cited from earlier work
[8] = test system: type 2 diabetic patients; details: FIELD and ACCORD; cited from earlier work

EC50 [1]: ~6 µM
Structure (SMILES): COc1ccc(COc2ccc(CNc3cccc(C(=O)O)c3)cc2)cc1 [Compound 10]
wound closure (cell migration) [2]: inhibits wound closure in a dose-dependent fashion | PPARα expression (Western blot) [3]: induced the expression of PPARα in a dose-dependent manner | expression of PPARα target genes (RT-PCR) [4]: induces the expression of various PPARα target genes

PPAR isoform selectivity profile ([5]; hPPARα): maintains the selectivity
Structure (SMILES): COc1ccc(COc2ccc(CNc3cccc(C(=O)O)c3)c(OCc3ccc(OC)cc3)c2)cc1 [Compound 26]

PPAR isoform selectivity profile ([5]; hPPARα): pan-agonist profile was maintained | improvement in potency versus 22 ([5]; hPPARα, compare 22 and 28): 10 fold
Structure (SMILES): COc1ccc(COc2ccc(CNc3cccc(OC(C)(C)C(=O)O)c3)c(OCc3ccc(OC)cc3)c2)cc1 [Compound 28]

Structure (SMILES): Cc1c(Cl)ccc2c(C(=O)O)cc(-c3ccccc3)nc12 [Compound Y-0452, 7-chloro-8-methyl-2-phenylquinoline-4-carboxylic acid]
EC50 [6]: 25 to 50 µM | toxicity in the retinas ([7]; mice and diabetic rats): without signs of toxicity | effects in vivo against DR ([7]; retinas of mice and diabetic rats): protective effects in vivo against DR

Structure (SMILES): Cc1nc(-c2ccc(C(F)(F)F)cc2)sc1C(=O)NCc1ccc(OC(C)(C)C(=O)O)cc1 [GW590735, reference compound]
cytotoxicity in reporter assay ([5]; concentrations higher than 10 μM): observed cytotoxicity at higher concentrations

Structure (SMILES): CC(C)OC(=O)C(C)(C)Oc1ccc(C(=O)c2ccc(Cl)cc2)cc1 [fenofibrate]
effects against diabetic macular edema (DME) and retinal NV [8]: robust protective effects
